Experimental data published in paper PMC8744835, “Sterically Hindered Quaternary Phosphonium Salts (QPSs): Antimicrobial Activity and Hemolytic and Cytotoxic Properties” (International Journal of Molecular Sciences, 2021).

Test system: S. aureus 209 P
Assay: Bactericidal properties of coated plastic samples
Assay type: cell-based, Staphylococcus aureus
Settings: for CFU/cm^2, Nylon: Nylon plastic
Experimental: The plastic samples, which were 10 mm × 10 mm × 2 mm, were preliminary sterilized and placed into an ethanolic solution of 12a for 1 min. Then, the studied and control (without coating) samples were immersed in bacterial suspensions with a known concentration of bacteria (10^5–10^8 bacteria/mL) for 24 h, and the number of viable micro-organisms was then estimated.
The plastic samples, which were 10 mm × 10 mm × 2 mm plates, were sterilized in a medical autoclave, HG-50 (Hirayama, Japan), at 121 °C for 20 min. Then, each sample was immersed in an ethanolic solution of compound 12a at concentrations of 0.01 and 0.001% for 1 min and air dried. After treatment, the plastic samples were placed in 24-well plates with 1 sample/well. Then, 1 mL of S. aureus 209 P suspension (10^5 bacteria/mL) was added to each well. The plastic control samples were not treated with compound 12a. The culture of Staphylococcus aureus 209 P was grown for a day at 37 °C in Mueller–Hinton Broth 2. Active daily growing cultures were diluted in physiological saline (NaCl 9.0 g/L) to a concentration of 10^5 bacteria/mL and then distributed into 25-well plates containing 1 cm^2 of coating/well, with the exception of an uncoated control well. After a 24-h incubation period at 37 °C, dilution series were performed for each treatment, and 100 μL volumes of 3 dilutions were plated on sterile Mueller–Hinton agar. After 24 h, the number of colonies on each plate was counted to obtain the corresponding concentration of live bacteria.

In the case of `CCCCCCCCCCCC[P+](C(C)(C)C)(C(C)(C)C)C(C)(C)C` [Compound 12a, tri-tert-butyl(n-dodecyl)phosphonium], the “bacterial growth on coated plastic” value (12a at a concentration of 0.01%, ABS, PLA natural and PETG plastics) is reported as “complete absence of bacterial growth”, the “CFU/cm^2, ABS” value (ABS plastic, 12a 0.001%, 24 h incubation with 10^5 S. aureus 209 P) is reported as 2.5 × 10^3 CFU/cm^2 and the “CFU/cm^2, Nylon” value (12a 0.001%, 24 h incubation with 10^5 S. aureus 209 P) is reported as 3.2 × 10^4 CFU/cm^2. For the same compound, the “CFU/cm^2, Nylon” value (12a 0.01%, 24 h incubation with 10^5 S. aureus 209 P) was 2.0 × 10^2 CFU/cm^2, the “CFU/cm^2, PC+” value (PC+ plastic, 12a 0.001%, 24 h incubation with 10^5 S. aureus 209 P) was 1.2 × 10^4 CFU/cm^2 and the “CFU/cm^2, PETG” value (PETG plastic, 12a 0.001%, 24 h incubation with 10^5 S. aureus 209 P) was 1.8 × 10^3 CFU/cm^2. For the same compound, the “decrease of bacterial cell concentration compared to the control” value (PETG, 12a 0.001%) was 27 times, the “CFU/cm^2, PLA Natural” value (PLA Natural plastic, 12a 0.001%, 24 h incubation with 10^5 S. aureus 209 P) was 5.0 × 10^3 CFU/cm^2 and the “CFU/cm^2, PLA+” value (PLA+ plastic, 12a 0.001%, 24 h incubation with 10^5 S. aureus 209 P) was 1.6 × 10^4 CFU/cm^2.
